3 molecules from patent publication US11542304B2, “Multimeric bicyclic peptide ligands” (BicycleTx Limited, priority 2018, dated 2023) can be followed below.

SMILES strings stand for the structures.

The target in the data set is CD137 (Homo sapiens, UniProt Q07011). In words: CD137 Promega reporter cell activity assay (NF-κB luciferase in Jurkat cells). The note with it: for Average Fold EC50 Improvement relative to CD137L: Average EC50 for CD137L = 14.2 nM; for Average Relative Fold Induction relative to CD137L: Average fold induction for CD137L = 4.0.
CD137, sequence (Q07011 24-255): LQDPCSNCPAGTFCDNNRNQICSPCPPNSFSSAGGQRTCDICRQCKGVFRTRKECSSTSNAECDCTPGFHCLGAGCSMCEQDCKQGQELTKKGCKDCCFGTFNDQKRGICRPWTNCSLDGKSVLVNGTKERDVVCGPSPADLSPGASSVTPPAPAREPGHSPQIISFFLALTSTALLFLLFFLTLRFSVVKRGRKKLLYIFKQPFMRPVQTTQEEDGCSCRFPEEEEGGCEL

`CC[C@H](C)[C@@H]1NC(=O)[C@@H](NC(=O)[C@H](C)NC(C)=O)CSCCC(=O)N2CN3CN(C2)C(=O)CCSC[C@H](NC(=O)[C@H](Cc2ccc(O)cc2)NC(=O)[C@H](CCC(N)=O)NC(=O)CNC(=O)[C@H](CCC(=O)O)NC(=O)[C@H](CCC(=O)O)NC1=O)C(=O)N[C@@H](Cc1ccccc1)C(=O)N[C@@H](C)C(=O)N[C@@H](CC(=O)O)C(=O)N1CCC[C@H]1C(=O)N[C@@H](Cc1ccc(O)cc1)C(=O)N[C@@H](CCCCNC(=O)OCC1C2CCc4nnn(CCOCCOCCOCCOCCOCCOCCOCCOCCOCCOCCNC(=O)CCOCCN(CCOCCC(=O)NCCOCCOCCOCCOCCOCCOCCOCCOCCOCCOCCn5nnc6c5CCC5C(CC6)C5COC(=O)NCCCC[C@@H]5NC(=O)[C@H](Cc6ccc(O)cc6)NC(=O)[C@@H]6CCCN6C(=O)[C@H](CC(=O)O)NC(=O)[C@H](C)NC(=O)[C@H](Cc6ccccc6)NC(=O)[C@@H]6CSCCC(=O)N7CN(CN(C7)C(=O)CCSC[C@@H](C(=O)N[C@@H](C)C(N)=O)NC5=O)C(=O)CCSC[C@H](NC(=O)[C@H](C)NC(C)=O)C(=O)N[C@@H]([C@@H](C)CC)C(=O)N[C@@H](CCC(=O)O)C(=O)N[C@@H](CCC(=O)O)C(=O)NCC(=O)N[C@@H](CCC(N)=O)C(=O)N[C@@H](Cc5ccc(O)cc5)C(=O)N6)CCOCCC(=O)NCCOCCOCCOCCOCCOCCOCCOCCOCCOCCOCCn5nnc6c5CCC5C(CC6)C5COC(=O)NCCCC[C@@H]5NC(=O)[C@H](Cc6ccc(O)cc6)NC(=O)[C@@H]6CCCN6C(=O)[C@H](CC(=O)O)NC(=O)[C@H](C)NC(=O)[C@H](Cc6ccccc6)NC(=O)[C@@H]6CSCCC(=O)N7CN(CN(C7)C(=O)CCSC[C@@H](C(=O)N[C@@H](C)C(N)=O)NC5=O)C(=O)CCSC[C@H](NC(=O)[C@H](C)NC(C)=O)C(=O)N[C@@H]([C@@H](C)CC)C(=O)N[C@@H](CCC(=O)O)C(=O)N[C@@H](CCC(=O)O)C(=O)NCC(=O)N[C@@H](CCC(N)=O)C(=O)N[C@@H](Cc5ccc(O)cc5)C(=O)N6)c4CCC21)C(=O)N[C@H](C(=O)N[C@@H](C)C(N)=O)CSCCC3=O` (stereo partly drawn) [BCY8106]: the “Average Fold EC50 Improvement relative to CD137L” value was 1.26 and the “Average Relative Fold Induction relative to CD137L” value was found to be 0.94.
With `CC[C@H](C)[C@@H]1NC(=O)[C@@H](NC(=O)[C@H](C)NC(C)=O)CSCCC(=O)N2CN3CN(C2)C(=O)CCSC[C@H](NC(=O)[C@H](Cc2ccc(O)cc2)NC(=O)[C@H](CCC(N)=O)NC(=O)CNC(=O)[C@H](CCC(=O)O)NC(=O)[C@H](CCC(=O)O)NC1=O)C(=O)N[C@@H](Cc1ccccc1)C(=O)N[C@@H](C)C(=O)N[C@@H](CC(=O)O)C(=O)N1CCC[C@H]1C(=O)N[C@@H](Cc1ccc(O)cc1)C(=O)N[C@@H](CCCCNC(=O)OCC1C2CCc4nnn(CCOCCOCCOCCOCCOCCOCCOCCOCCOCCOCCOCCOCCOCCOCCOCCOCCOCCOCCOCCOCCOCCOCCOCCNC(=O)CCOCCN(CCOCCC(=O)NCCOCCOCCOCCOCCOCCOCCOCCOCCOCCOCCOCCOCCOCCOCCOCCOCCOCCOCCOCCOCCOCCOCCOCCn5nnc6c5CCC5C(CC6)C5COC(=O)NCCCC[C@@H]5NC(=O)[C@H](Cc6ccc(O)cc6)NC(=O)[C@@H]6CCCN6C(=O)[C@H](CC(=O)O)NC(=O)[C@H](C)NC(=O)[C@H](Cc6ccccc6)NC(=O)[C@@H]6CSCCC(=O)N7CN(CN(C7)C(=O)CCSC[C@@H](C(=O)N[C@@H](C)C(N)=O)NC5=O)C(=O)CCSC[C@H](NC(=O)[C@H](C)NC(C)=O)C(=O)N[C@@H]([C@@H](C)CC)C(=O)N[C@@H](CCC(=O)O)C(=O)N[C@@H](CCC(=O)O)C(=O)NCC(=O)N[C@@H](CCC(N)=O)C(=O)N[C@@H](Cc5ccc(O)cc5)C(=O)N6)CCOCCC(=O)NCCOCCOCCOCCOCCOCCOCCOCCOCCOCCOCCOCCOCCOCCOCCOCCOCCOCCOCCOCCOCCOCCOCCOCCn5nnc6c5CCC5C(CC6)C5COC(=O)NCCCC[C@@H]5NC(=O)[C@H](Cc6ccc(O)cc6)NC(=O)[C@@H]6CCCN6C(=O)[C@H](CC(=O)O)NC(=O)[C@H](C)NC(=O)[C@H](Cc6ccccc6)NC(=O)[C@@H]6CSCCC(=O)N7CN(CN(C7)C(=O)CCSC[C@@H](C(=O)N[C@@H](C)C(N)=O)NC5=O)C(=O)CCSC[C@H](NC(=O)[C@H](C)NC(C)=O)C(=O)N[C@@H]([C@@H](C)CC)C(=O)N[C@@H](CCC(=O)O)C(=O)N[C@@H](CCC(=O)O)C(=O)NCC(=O)N[C@@H](CCC(N)=O)C(=O)N[C@@H](Cc5ccc(O)cc5)C(=O)N6)c4CCC21)C(=O)N[C@H](C(=O)N[C@@H](C)C(N)=O)CSCCC3=O` (stereo partly drawn) [BCY8107], the “Average Fold EC50 Improvement relative to CD137L” value was 64.33 and the “Average Relative Fold Induction relative to CD137L” value was determined as 0.64.
In the same order, the values of `CC[C@H](C)[C@@H]1NC(=O)[C@@H](NC(=O)[C@H](C)NC(C)=O)CSCCC(=O)N2CN3CN(C2)C(=O)CCSC[C@H](NC(=O)[C@H](Cc2ccc(O)cc2)NC(=O)[C@H](CCC(N)=O)NC(=O)CNC(=O)[C@H](CCC(=O)O)NC(=O)[C@H](CCC(=O)O)NC1=O)C(=O)N[C@@H](Cc1ccccc1)C(=O)N[C@@H](C)C(=O)N[C@@H](CC(=O)O)C(=O)N1CCC[C@H]1C(=O)N[C@@H](Cc1ccc(O)cc1)C(=O)N[C@@H](CCCCNC(=O)OCC1C2CCc4nnn(CCOCCOCCOCCOCCOCCOCCOCCOCCOCCOCCNC(=O)CCOCC(COCCC(=O)NCCOCCOCCOCCOCCOCCOCCOCCOCCOCCOCCn5nnc6c5CCC5C(CC6)C5COC(=O)NCCCC[C@@H]5NC(=O)[C@H](Cc6ccc(O)cc6)NC(=O)[C@@H]6CCCN6C(=O)[C@H](CC(=O)O)NC(=O)[C@H](C)NC(=O)[C@H](Cc6ccccc6)NC(=O)[C@@H]6CSCCC(=O)N7CN(CN(C7)C(=O)CCSC[C@@H](C(=O)N[C@@H](C)C(N)=O)NC5=O)C(=O)CCSC[C@H](NC(=O)[C@H](C)NC(C)=O)C(=O)N[C@@H]([C@@H](C)CC)C(=O)N[C@@H](CCC(=O)O)C(=O)N[C@@H](CCC(=O)O)C(=O)NCC(=O)N[C@@H](CCC(N)=O)C(=O)N[C@@H](Cc5ccc(O)cc5)C(=O)N6)(COCCC(=O)NCCOCCOCCOCCOCCOCCOCCOCCOCCOCCOCCn5nnc6c5CCC5C(CC6)C5COC(=O)NCCCC[C@@H]5NC(=O)[C@H](Cc6ccc(O)cc6)NC(=O)[C@@H]6CCCN6C(=O)[C@H](CC(=O)O)NC(=O)[C@H](C)NC(=O)[C@H](Cc6ccccc6)NC(=O)[C@@H]6CSCCC(=O)N7CN(CN(C7)C(=O)CCSC[C@@H](C(=O)N[C@@H](C)C(N)=O)NC5=O)C(=O)CCSC[C@H](NC(=O)[C@H](C)NC(C)=O)C(=O)N[C@@H]([C@@H](C)CC)C(=O)N[C@@H](CCC(=O)O)C(=O)N[C@@H](CCC(=O)O)C(=O)NCC(=O)N[C@@H](CCC(N)=O)C(=O)N[C@@H](Cc5ccc(O)cc5)C(=O)N6)COCCC(=O)NCCOCCOCCOCCOCCOCCOCCOCCOCCOCCOCCn5nnc6c5CCC5C(CC6)C5COC(=O)NCCCC[C@@H]5NC(=O)[C@H](Cc6ccc(O)cc6)NC(=O)[C@@H]6CCCN6C(=O)[C@H](CC(=O)O)NC(=O)[C@H](C)NC(=O)[C@H](Cc6ccccc6)NC(=O)[C@@H]6CSCCC(=O)N7CN(CN(C7)C(=O)CCSC[C@@H](C(=O)N[C@@H](C)C(N)=O)NC5=O)C(=O)CCSC[C@H](NC(=O)[C@H](C)NC(C)=O)C(=O)N[C@@H]([C@@H](C)CC)C(=O)N[C@@H](CCC(=O)O)C(=O)N[C@@H](CCC(=O)O)C(=O)NCC(=O)N[C@@H](CCC(N)=O)C(=O)N[C@@H](Cc5ccc(O)cc5)C(=O)N6)c4CCC21)C(=O)N[C@H](C(=O)N[C@@H](C)C(N)=O)CSCCC3=O` (stereo partly drawn) [BCY8108] are 34.03 and 0.79.
